In patent publication US12514845B2, “Ionic-liquid-based formulations for the prevention or treatment of neurological diseases” (Universidade De Aveiro, priority 2022, dated 2026):
Where two headings read alike, the source gives them in different places.

What was measured:
Nox1 = target: T1, Nox1 (Homo sapiens, UniProt Q9Y5S8); details: Bae et al. 2016; cited from earlier work
T1 construct: host or cells: drosophila
T1 sequence (Q9Y5S8 1-564): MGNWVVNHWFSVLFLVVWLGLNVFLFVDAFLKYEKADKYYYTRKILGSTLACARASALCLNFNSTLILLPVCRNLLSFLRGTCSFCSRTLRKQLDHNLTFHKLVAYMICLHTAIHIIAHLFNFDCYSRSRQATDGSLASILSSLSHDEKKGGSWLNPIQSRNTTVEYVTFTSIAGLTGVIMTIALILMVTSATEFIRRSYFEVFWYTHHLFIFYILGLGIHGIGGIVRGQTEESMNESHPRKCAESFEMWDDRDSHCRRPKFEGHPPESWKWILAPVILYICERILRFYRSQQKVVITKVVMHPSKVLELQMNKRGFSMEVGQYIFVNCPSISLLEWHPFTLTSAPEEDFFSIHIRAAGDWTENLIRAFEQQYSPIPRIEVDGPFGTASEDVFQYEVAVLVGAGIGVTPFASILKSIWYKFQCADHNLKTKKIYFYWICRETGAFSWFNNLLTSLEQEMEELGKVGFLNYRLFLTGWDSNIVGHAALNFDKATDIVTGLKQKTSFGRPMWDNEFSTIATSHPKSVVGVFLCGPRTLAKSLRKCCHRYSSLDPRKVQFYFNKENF

[1] = Solubility in water and PBS (saturation, UV-spectroscopy); type: physicochemical; details: thermodynamic from solid, 37° C., minimum 72 h
Description: In an embodiment, the solutes N1(4)inh and mixture comprising [Chol]2[N1(4)inh]+N1(4)inh were added in excess to a fixed volume (500 μL) of water and PBS solution. These mixtures were incubated at 37° C., under constant agitation 1150 rpm and for a minimum of 72 h, using an Eppendorf Thermomixer Comfort equipment. Throughout this process, solute was added to the mixture, whenever necessary, i.e., until the solution saturation. All samples were filtered using syringe filters ([…]) to remove possible suspended solid particles.
(§1) In an embodiment, the quantification of N1(4)inh and [Chol]2[N1(4)inh] was carried by UV-spectroscopy, using a UV-spectrophotometry (SYNERGY|HT microplate reader, BioTek) at a wavelength of 416 nm and 480 nm, respectively. The interference of the PBS with the quantification method was also ascertained and blank control samples were always used.
as §1, with “embodiment, solutes (N1(4)inh and [Chol]2[N1(4)inh]+N1(4)inh) were added in excess to a fixed volume (500 μL) of water and PBS solution. […] The” for “embodiment, the”, “and [Chol]2[N1(4)inh]+N1(4)inh” for “and [Chol]2[N1(4)inh]”

dopaminergic neurons = details: experimental models of PD; Cristóvão et al. 2019; cited from earlier work
Nox4 = target: T2, Nox4 (Homo sapiens, UniProt Q9NPH5); details: Bae et al. 2016; cited from earlier work
T2 construct: host or cells: drosophila
T2 sequence (Q9NPH5 1-578): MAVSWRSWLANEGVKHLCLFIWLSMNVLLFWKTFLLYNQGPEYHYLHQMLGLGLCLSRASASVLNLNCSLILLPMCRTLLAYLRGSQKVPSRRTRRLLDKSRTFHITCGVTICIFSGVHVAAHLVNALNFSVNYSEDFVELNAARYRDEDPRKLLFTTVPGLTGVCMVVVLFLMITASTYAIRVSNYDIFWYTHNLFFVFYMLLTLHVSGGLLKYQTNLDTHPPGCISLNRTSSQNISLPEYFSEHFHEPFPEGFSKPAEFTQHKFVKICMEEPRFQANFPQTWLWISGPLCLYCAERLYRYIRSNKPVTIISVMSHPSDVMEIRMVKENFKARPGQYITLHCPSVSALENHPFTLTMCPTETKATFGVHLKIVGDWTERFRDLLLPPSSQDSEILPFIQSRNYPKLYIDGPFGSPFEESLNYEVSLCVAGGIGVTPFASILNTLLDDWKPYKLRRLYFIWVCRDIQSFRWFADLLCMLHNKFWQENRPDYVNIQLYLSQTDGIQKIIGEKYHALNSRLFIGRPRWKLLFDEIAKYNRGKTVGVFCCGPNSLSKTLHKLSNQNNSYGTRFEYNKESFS

[2] = Decomposition temperature by thermogravimetric analysis (TGA); type: physicochemical; details: TGA (FIG. 5)
Description: In an embodiment, the decomposition temperature of [Chol]2[N1(4)inh]+N1(4)inh was evaluated by thermogravimetric analysis (TGA) and the results disclose that the mixture is thermally stable up to 200° C., as disclosed in FIG. 5.
In an embodiment, the decomposition temperature was determined by thermogravimetric analysis (TGA).

solubility ([1]; aqueous buffer, PBS, read-out: solubility in PBS): 8 ± 1 µg/mL | solubility ([1]; water, read-out: solubility in water): 11 ± 2 µg/mL | decomposition temperature (thermal stability) [2]: 200 °C
SMILES: CN1C(=S)N(C2CCCCC2)C(=O)C1=Cc1ccc(O)cc1O [N1(4)inh, 3-cyclohexyl-5-(2,4-dihydroxybenzylidene)-1-methyl-2-thiohydantoin]
inhibition of Nox1 (Nox1): effective inhibitor | neuroprotective potential (dopaminergic neurons): high neuroprotective potential | inhibition of Nox4 (Nox4): partial inhibitor
